36 compounds from patent publication US11498923B2 (Merck Sharp & Dohme Corp., priority 2017, dated 2022) can be followed below.

pKi: −log10 of the molar value.

The target of this test is T1, human A2a receptor (Homo sapiens, UniProt P29274).
T1 construct: purchased Perkin-Elmer RBHA2AM400UA; host or cells: HEK293 cells, used as a membrane preparation
T1 sequence (P29274 whole entry): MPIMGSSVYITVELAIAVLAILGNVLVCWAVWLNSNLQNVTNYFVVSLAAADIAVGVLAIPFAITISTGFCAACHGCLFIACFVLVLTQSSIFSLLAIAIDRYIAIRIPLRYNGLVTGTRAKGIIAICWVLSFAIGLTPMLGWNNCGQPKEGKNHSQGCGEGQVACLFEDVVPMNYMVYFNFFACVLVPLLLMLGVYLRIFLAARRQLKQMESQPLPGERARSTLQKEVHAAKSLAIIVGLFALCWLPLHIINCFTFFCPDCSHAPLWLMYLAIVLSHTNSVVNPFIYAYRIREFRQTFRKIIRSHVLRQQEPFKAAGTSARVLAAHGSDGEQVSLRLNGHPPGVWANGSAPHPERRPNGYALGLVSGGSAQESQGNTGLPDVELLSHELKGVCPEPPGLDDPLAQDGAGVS
Description: A2a receptor competition binding assay (Scintillation Proximity). As to conditions: membranes from HEK293 cells expressing human A2a receptor; 0.5 nM tritiated ligand; Cheng-Prusoff; read-out: A2a Ki. The protocol:
Binding affinities of compounds of the invention for the human A2a receptor were determined in a competition binding assay using Scintillation Proximity technology. Thus, 0.3 μg of membranes from HEK293 cells expressing the human A2a receptor were incubated with a compound of the invention at concentrations ranging from 3000 nM to 0.15 nM in a reaction mixture containing also 0.5 nM of a tritiated form of 5-amino-7-[2-phenethyl]-2-(furan-2-yl)-7H-pyrazolo[4,3-e][1,2,4]triazolo[1,5-c]pyrimidine (the tritiated compound) and 100 μg of wheat germ agglutin-coated yttrium silicate SPA beads for one hour at room temperature with agitation. The beads were then allowed to settle to the bottom of the wells for 1 hr, after which the membrane-associated radioactivity was determined by scintillation counting in a TopCount microplate reader. Ki values were determined using the Cheng-Prusoff equation.
Summary of Materials and Methods Used in A2a Activity Determination:
HEK293 cells expressing the human, rat, dog or monkey adenosine 2a receptor (Purchased from Perkin-Elmer #RBHA2AM400UA).
The Tritiated compound was prepared according to published methods.
Wheat germ agglutinin-coated yttrium silicate SPA beads (GE Healthcare #RPNQ0023). Dilute to 25 mg/ml in assay buffer.
Assay Buffer was prepared using Dulbecco's calcium and magnesium free phosphate buffered saline+10 mMMgCl2
Adenosine deaminase from calf intestine, 10 mg/2 ml (Roche #10 102 105 001).
A2a antagonist standard (9-chloro-1-(2-furanyl)-[1,2,4]triazolo1,5-c]quinazolin-5-amine from Tocris Bioscience)
Make eight 1:3 serial dilutions in 100% DMSO from a 3 mM compound stock
Transfer 50 nl of compound into a 384-well OptiPlate (Perkin Elmer).
Typically, final concentrations of compound used in the assay ranged from 3000 nM to 0.152 nM.
Dilute a solution of the Tritiated compound to 1.25 nM in assay buffer. This is a 2.5× solution. The final concentration in the assay is 0.5 nM. Calculate the concentration by counting two 5 μl aliquots.
Use 0.25 ug of membrane/well. Dilute membranes to 9.7 μg/ml in assay buffer. Treat with 20 ug/ml adenosine deaminase (ADA) for 15 minutes at room temperature to degrade endogenous adenosine.
Use 100 μg/well wheat germ agglutinin-coated yttrium silicate SPA beads.
Mix ADA-treated membranes and SPA beads together for 30 min prior to assay.
To the Perkin-Elmer Optiplate-384 containing the compound titration add 20 μl of 2.5× solution of the Tritiated compound and 30 μl of the membrane-bead mixture. Incubate for one hour at room temperature with agitation.
Include total binding (assay buffer+1% DMSO) and non-specific binding (CGS15943, 1 μM) wells.
Allow the beads to settle for one hour.
A curve fitting program (i.e., Prism, Activity Base, Chemcart) is used to determine the EC50. The Ki value is calculated using the Cheng-Prusoff equation. Ki=EC50/(1+(radioligand concentration/Kd))
A word on the pKi: it is −log10 of the Ki, conventionally taken in molar units. For `Nc1nc2c(F)cccc2c2nc(Cc3ccccc3CN3CCN(c4nc5ccccc5o4)CC3)cn12`, the pKi is 7.70.
Consider `COc1cccc2c1nc(N)n1cc(Cc3ccccc3)nc21` [Ex-01, 2-benzyl-7-methoxyimidazo[1,2-c]quinazolin-5-amine], for which the negative logarithm of the Ki (pKi) is 9.40.
Next, `Nc1nc2ccccc2c2nc(Cc3ccccc3)cn12` [Ex-02, 2-benzylimidazo[1,2-c]quinazolin-5-amine]: 8.24; `COc1ccc2c(c1)nc(N)n1cc(Cc3ccccc3)nc21` [Ex-03, 2-benzyl-8-methoxyimidazo[1,2-c]quinazolin-5-amine]: 8.59.
In the case of `COc1ccc2nc(N)n3cc(Cc4ccccc4)nc3c2c1` [Ex-04, 2-benzyl-9-methoxyimidazo[1,2-c]quinazolin-5-amine] it was 7.05; in that of `COc1cccc2nc(N)n3cc(Cc4ccccc4)nc3c12` [Ex-05, 2-benzyl-10-methoxyimidazo[1,2-c]quinazolin-5-amine], 6.19.
For the compound `Nc1nc2c(F)cccc2c2nc(Cc3ccccc3)cn12` [Ex-06, 2-benzyl-7-fluoroimidazo[1,2-c]quinazolin-5-amine], the pKi is 9.05.
For `Nc1nc2cc(F)ccc2c2nc(Cc3ccccc3)cn12` [Ex-07, 2-benzyl-8-fluoroimidazo[1,2-c]quinazolin-5-amine], the pKi is 8.34.
Next, `Nc1nc2ccc(F)cc2c2nc(Cc3ccccc3)cn12` [Ex-08, 2-benzyl-9-fluoroimidazo[1,2-c]quinazolin-5-amine]: 8.44; `Nc1nc2cccc(F)c2c2nc(Cc3ccccc3)cn12` [Ex-09, 2-benzyl-10-fluoroimidazo[1,2-c]quinazolin-5-amine]: 8.20; `Nc1nc2c(OC(F)(F)F)cccc2c2nc(Cc3ccccc3)cn12` [Ex-10, 2-benzyl-7-(trifluoromethoxy)imidazo[1,2-c]quinazolin-5-amine]: 8.21.
In the case of `COc1c(F)ccc2c1nc(N)n1cc(Cc3ccccc3)nc21` [Ex-11, 2-benzyl-8-fluoro-7-methoxyimidazo[1,2-c]quinazolin-5-amine] it was 8.70; in that of `Nc1nc2c(F)ccc(Br)c2c2nc(Cc3ccccc3)cn12` [Ex-12, 2-benzyl-10-bromo-7-fluoroimidazo[1,2-c]quinazolin-5-amine], 8.11.
Next, `Nc1nc2cc(N3CCOCC3)c(F)cc2c2nc(Cc3ccccc3)cn12` [Ex-13, 2-benzyl-9-fluoro-8-morpholinoimidazo[1,2-c]quinazolin-5-amine]: 6.04; `Nc1nc2ccccc2c2nc(Cc3ccccc3C(F)(F)F)cn12` [Ex-14, 2-(2-(trifluoromethyl)benzyl)imidazo[1,2-c]quinazolin-5-amine]: 8.64.
`Nc1nc2ccccc2c2nc(Cc3cccc4cccnc34)cn12` [Ex-15, 2-(quinolin-8-ylmethyl)imidazo[1,2-c]quinazolin-5-amine]: the pKi is 8.70.
Consider `COc1cccc2c1nc(N)n1cc(Cc3cccc4cccnc34)nc21` [Ex-16, 7-methoxy-2-(quinolin-8-ylmethyl)imidazo[1,2-c]quinazolin-5-amine], for which the negative logarithm of the Ki (pKi) was 9.52.
Next, `COc1cccc2c1nc(N)n1cc(Cc3ccccc3C(F)(F)F)nc21` [Ex-17, 7-methoxy-2-(2-(trifluoromethyl)benzyl)imidazo[1,2-c]quinazolin-5-amine]: 9.10.
In the case of `COc1cccc2c1nc(N)n1cc(Cc3ccc(F)cc3F)nc21` [Ex-18, 2-(2,4-difluorobenzyl)-7-methoxyimidazo[1,2-c]quinazolin-5-amine] it was 9.00; in that of `COc1cccc2c1nc(N)n1cc(Cc3ccccc3N3CCOCC3)nc21` [Ex-19, 7-methoxy-2-(2-morpholinobenzyl)imidazo[1,2-c]quinazolin-5-amine], 8.35; in that of `COc1cccc2c1nc(N)n1cc(Cc3ccccc3N(C)C)nc21` [Ex-20, 2-(2-(dimethylamino)benzyl)-7-methoxyimidazo[1,2-c]quinazolin-5-amine], 8.85.
In the case of `COc1cccc2c1nc(N)n1cc(Cc3ccc(F)cc3)nc21` [Ex-21, 2-(4-fluorobenzyl)-7-methoxyimidazo[1,2-c]quinazolin-5-amine] it was 9.10.
On to `COc1cccc2c1nc(N)n1cc(Cc3cccc(F)c3)nc21` [Ex-22, 2-(3-fluorobenzyl)-7-methoxyimidazo[1,2-c]quinazolin-5-amine], for which the pKi was 8.72.
Turning to `COc1cccc2c1nc(N)n1cc(Cc3c(Cl)cccc3Cl)nc21` [Ex-23, 2-(2,6-dichlorobenzyl)-7-methoxyimidazo[1,2-c]quinazolin-5-amine], the pKi was 8.68.
Next, `COc1cccc2c1nc(N)n1cc(Cc3cccc(-c4ccccc4)c3)nc21` [Ex-24, 2-([1,1′-biphenyl]-3-ylmethyl)-7-methoxyimidazo[1,2-c]quinazolin-5-amine]: 8.00.
Consider `Nc1nc2ccccc2c2nc(Cc3ccccc3CN3CCOCC3)cn12` [Ex-25, 2-(2-(morpholinomethyl)benzyl)imidazo[1,2-c]quinazolin-5-amine], for which the pKi is 7.99.
Next, `COc1cccc2c1nc(N)n1cc(Cc3ccccc3CN3CCOCC3)nc21` [Ex-26, 7-methoxy-2-(2-(morpholinomethyl)benzyl)imidazo[1,2-c]quinazolin-5-amine]: 9.40; `Nc1nc2c(F)cccc2c2nc(Cc3ccccc3-c3ccccc3)cn12` [Ex-27, 2-([1,1′-biphenyl]-2-ylmethyl)-7-fluoroimidazo[1,2-c]quinazolin-5-amine]: 8.59; `COc1cccc2c1nc(N)n1cc(Cc3cccc(N4CCOCC4)c3)nc21` [Ex-28, 7-methoxy-2-(3-morpholinobenzyl)imidazo[1,2-c]quinazolin-5-amine]: 8.68.
In the case of `COc1cccc2c1nc(N)n1cc(Cc3ccccc3N3CCCC3)nc21` [Ex-29, 7-methoxy-2-(2-(pyrrolidin-1-yl)benzyl)imidazo[1,2-c]quinazolin-5-amine] it was 8.80; in that of `COc1cccc2c1nc(N)n1cc(Cc3cc(C(F)(F)F)ccc3N3CCOCC3)nc21` [Ex-30, 7-methoxy-2-(2-morpholino-5-(trifluoromethyl)benzyl)imidazo[1,2-c]quinazolin-5-amine], 7.42.
In the case of `COc1cccc2c1nc(N)n1cc(Cc3c(O)cccc3F)nc21` [Ex-31, 2-((5-amino-7-methoxyimidazo[1,2-c]quinazolin-2-yl)methyl)-3-fluorophenol] it was 8.68; in that of `Nc1nc2c(F)cccc2c2nc(Cc3cccc4cccnc34)cn12` [Ex-32, 7-fluoro-2-(quinolin-8-ylmethyl)imidazo[1,2-c]quinazolin-5-amine], 8.70; in that of `Nc1nc2c(F)cccc2c2nc(Cc3cccc(CN4CCOCC4)c3)cn12` [Ex-33, 7-fluoro-2-(3-(morpholinomethyl)benzyl)imidazo[1,2-c]quinazolin-5-amine], 8.52.
Turning to `Nc1nc2c(F)cccc2c2nc(Cc3cccc(Cc4ccccc4)c3)cn12` [Ex-34, 2-(3-benzylbenzyl)-7-fluoroimidazo[1,2-c]quinazolin-5-amine], the pKi was 7.68.
For `Nc1nc2c(F)cccc2c2nc(Cc3ccccc3CN3CCOCC3)cn12` [Ex-35, 7-fluoro-2-(2-(morpholinomethyl)benzyl)imidazo[1,2-c]quinazolin-5-amine], the negative logarithm of the Ki (pKi) is 8.22.
